# Tests used:
# CDK4 = CDK4 (Homo sapiens, UniProt P11802); assay: AlphaScreen kinase assay (Rb peptide); format: biochemical; details: ATP Km
# Description: (§1) For RAF kinases, detailed assay information was described in ref.[18] Briefly, the kinase activity of BRAF WT, BRAF V600E, or CRAF was measured using an AlphaScreen assay (Perkin Elmer, MA) monitoring MEK1/2 phosphorylation at Ser217/221. For CDK2 and CDK4 kinases, activity was also measured by AlphaScreen, monitoring phosphorylation of biotin Rb peptide at Ser780. Similarly, MAP3K7, CSF1R and JAK2 kinase activity was measured by phosphorylation of their biotinylated substrates MKK6 kinase dead protein at Ser271/Thr275, or tyrosine phosphorylation of pEY or Tyk2 Tyr1054/1055 peptides, respectively. CSK, IGF1R, EGFR, FGFR1 and SRC kinase activity was measured using a sandwich ELISA detecting phosphorylated poly EAY peptide with a HRP conjugated phosphotyrosine antibody and TMB substrate, while p38 kinase activity was measured by monitoring phosphorylation of MBP protein with radiolabeled ^33P-ATP in a filter binding format. All assays were screened under respective ATP Km conditions and inhibitor IC50s were derived from either 5 (RAF kinases, CDK2, CDK4, MAP3K7, JAK2), 10 (CSK, IGF1R, EGFR, FGFR1, SRC) or 11 (p38, CSF1R) point compound dose response.
# CDK2 = CDK2 (Homo sapiens, UniProt P24941); assay: AlphaScreen kinase assay (Rb peptide); format: biochemical; details: ATP Km
# Description: as §1
# [1] = system: RKO, HT-29, DiFi and Caco-2 cells; assay: MTT assay with EGF stimulation; format: cell-based, human; details: four CRC cell lines, AZ304 + EGF (20 ng/ml) vs AZ304 alone, 72 h
# Description: The proliferation assays in selected colorectal cancer cell lines were measured using a 3-(4,5-dimethyl thiazol-2-yl)-2,5-diphenyl tetrazolium bromide (MTT) assay. First of all, cultured cells were seeded into 96-well plates (2000–5000 cells per well). After incubation for 24 h, the cells were pretreated with DMSO or AZ304 for 1 h. Then the indicated doses of Cetuximab were added. Cells were incubated for a further 48 or 72 h. For EGF stimulating assay, cells were incubated in reduced serum medium overnight and then treated with AZ304 or AZ304 + EGF (20 ng/ml) for 72 h. Twenty microliter of MTT solution (5 mg/ml) was added to each well followed by 4 h incubation at 37 °C. The cell culture medium was removed and the cells were lysed in 200 μl dimethylsulphoxide (DMSO) and the results were measured using a microplate reader (Model 550, Bio-Rad Laboratories, Hercules, CA, USA).
# Fig. 5 Anti-proliferative activity of AZ304 cannot be retained by EGF in CRC cell lines with different BRAF mutation status. a Two V600E mutant BRAF cell lines (RKO, HT-29) and two wild type BRAF cell lines (DiFi, Caco-2) were serum starved overnight and then treated with the indicated AZ304 or AZ304 + EGF for 72 h. […]
# Sequence of CDK4 (P11802 whole entry, species assumed): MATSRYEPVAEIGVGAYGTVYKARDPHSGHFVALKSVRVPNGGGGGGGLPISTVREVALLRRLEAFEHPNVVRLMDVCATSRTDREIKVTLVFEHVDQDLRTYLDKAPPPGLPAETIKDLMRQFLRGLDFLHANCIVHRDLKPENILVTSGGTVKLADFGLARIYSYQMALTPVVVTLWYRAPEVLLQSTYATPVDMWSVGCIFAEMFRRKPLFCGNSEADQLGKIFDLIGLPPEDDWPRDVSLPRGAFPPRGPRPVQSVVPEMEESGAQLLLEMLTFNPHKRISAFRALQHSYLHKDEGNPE
# Sequence of CDK4 (P24385 whole entry partner, species assumed): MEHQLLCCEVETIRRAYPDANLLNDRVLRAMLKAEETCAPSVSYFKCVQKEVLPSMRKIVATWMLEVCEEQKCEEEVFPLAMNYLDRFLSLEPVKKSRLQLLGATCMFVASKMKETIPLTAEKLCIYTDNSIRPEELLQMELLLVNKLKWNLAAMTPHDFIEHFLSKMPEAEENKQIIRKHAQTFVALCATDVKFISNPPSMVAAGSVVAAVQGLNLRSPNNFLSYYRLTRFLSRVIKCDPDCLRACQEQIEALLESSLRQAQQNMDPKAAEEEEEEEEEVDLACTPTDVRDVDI
compound,measurement,setting,value
COc1ccc2c(Nc3cc(NC(=O)c4cccc(C(C)(C)C#N)c4)ccc3C)ncnc2c1 [AZ304],IC50,CDK4,> 10 µM
same,IC50,CDK2,> 10 µM
same,change of anti-proliferative effects after combined treatment with EGF,[1],no significant reduction of anti-proliferative effects
